Experimental data published in PMC4205912, “Sea foam as a source of fungal inoculum for the isolation of biologically active natural products” (Mycology, 2014).
In brackets after ≈: the same amount, converted by molar mass. Read-outs that look alike come from different tables or passages of the source.

Tests used:
[1] = test system: Proteus vulgaris ATCC 12454; assay: microbroth antibiotic susceptibility testing, P. vulgaris; type: cell-based; details: Proteus vulgaris, ATCC12454; triplicate, averaged; 22 h at 37°C
Experimental: (§1) All microbroth antibiotic susceptibility testing was carried out in triplicate in 96-well plates in accordance with Clinical Laboratory Standards Institute testing standards (NCCLS, [2003]) using the following pathogens: MRSA ATCC 33591 (MRSA), S. warneri ATCC 17917, VRE EF379 (VRE), Pseudomonas aeruginosa ATCC 14210, Proteus vulgaris ATCC 12454, and Candida albicans ATCC 14035. […] The optical density of the plate was recorded using a Thermo Scientific Varioskan Flash plate reader at 600 nm at time zero and then again after incubation of the plates for 22 h at 37°C. After subtracting the time zero OD600 from the final reading, the percentages of microorganism survival relative to vehicle control wells were calculated.

S. warneri ATCC 17917 = assay: microbroth antibiotic susceptibility testing, S. warneri; type: cell-based; details: Staphylococcus warneri; for IC50: read-out: S. warneri IC50; for MIC: read-out: S. warneri MIC
Experimental: as §1, with “14035. Extract fractions were assayed at 250 µg/mL while pure compounds were serially diluted to generate a range of 12 concentrations (128–0.0625 µg/mL) in a final well volume concentration of 2% DMSO(aq).” for “14035.”

[2] = test system: Candida albicans ATCC 14035; assay: microbroth susceptibility testing, C. albicans; type: cell-based; details: for IC50 / MIC: Candida albicans, ATCC14035
Experimental: as §1, with “14035. Extract fractions were assayed at 250 µg/mL while pure compounds were serially diluted to generate a range of 12 concentrations (128–0.0625 µg/mL) in a final well volume concentration of 2% DMSO(aq).” for “14035.”

VRE EF379 = assay: microbroth antibiotic susceptibility testing, VRE; type: cell-based, vancomycin-resistant Enterococcus faecium; details: Enterococcus, VRE; for IC50: read-out: VRE IC50; for MIC: read-out: VRE MIC
Experimental: as §1, with “14035. Extract fractions were assayed at 250 µg/mL while pure compounds were serially diluted to generate a range of 12 concentrations (128–0.0625 µg/mL) in a final well volume concentration of 2% DMSO(aq).” for “14035.”

MRSA ATCC 33591 = assay: microbroth antibiotic susceptibility testing, MRSA; type: cell-based, methicillin-resistant Staphylococcus aureus; details: Staphylococcus aureus; for IC50: read-out: MRSA IC50; for MIC: read-out: MRSA MIC
Experimental: as §1, with “14035. Extract fractions were assayed at 250 µg/mL while pure compounds were serially diluted to generate a range of 12 concentrations (128–0.0625 µg/mL) in a final well volume concentration of 2% DMSO(aq).” for “14035.”

[3] = test system: human breast adenocarcinoma cells (ATCC HTB-26); assay: cytotoxicity assay (Alamar blue), HTB-26; type: cell-based; details: for IC50: Homo sapiens, HTB26, 72 h, read-out: HTB-26 IC50
Experimental: (§2) Human foreskin BJ fibroblast cells (ATCC CRL-2522), adult human epidermal keratinocytes (HEKa), and human breast adenocarcinoma cells (ATCC HTB-26) were grown to 80% confluency (growth conditions are provided in Supplementary Materials and Methods), the cells were counted, diluted, and plated into treated 96-well cell culture plates. The BJ fibroblast and HEKa cells were plated at a cell density of 10,000 cells per well and the HTB-26 cells were plated at cell density of 5000 cells per well in 90 µL of respective growth medium (without the addition of antibiotics) and incubated for 24 h to allow cells to adhere to the plates before treatment. Pure compounds were tested in triplicate in serial dilutions of eight concentrations ranging from 128 µg/mL to 1 µg/mL per well (final well volume of 100 µL, 1% DMSO per well). Each of the cell lines were incubated at 37°C in a humidified atmosphere of 5% CO2; the BJ fibroblast and HEKa cells for 24 h and the HTB-26 cells for 72 h. Each plate contained four uninoculated positive controls, four untreated negative controls, and one column containing a concentration range of zinc pyrithione or doxorubicin. Alamar blue was added, 24 h after the treatment, and fluorescence was monitored using a Thermo Scientific Varioskan Flash plate reader at 560/12 excitation, 590 nm emission both at time zero and 4 h after Alamar blue addition. The inferred percentage of cell viability relative to vehicle control wells were calculated after subtracting the time zero emission 590 nm measurement from the final reading and the IC50 was determined.

[4] = test system: Pseudomonas aeruginosa ATCC 14210; assay: microbroth antibiotic susceptibility testing, P. aeruginosa; type: cell-based; details: Pseudomonas aeruginosa, ATCC14210; triplicate, averaged; 22 h at 37°C
Experimental: as §1, with “14035. Extract fractions were assayed at 250 µg/mL while pure compounds were serially diluted to generate a range of 12 concentrations (128–0.0625 µg/mL) in a final well volume concentration of 2% DMSO(aq).” for “14035.”

[5] = test system: Human foreskin BJ fibroblast cells (ATCC CRL-2522); assay: cytotoxicity assay (Alamar blue), fibroblasts; type: cell-based; details: for IC50: Homo sapiens, 24 h, read-out: Fibroblast IC50
Experimental: as §2

[6] = test system: adult human epidermal keratinocytes (HEKa); assay: cytotoxicity assay (Alamar blue), keratinocytes; type: cell-based; details: Homo sapiens; HeKa cells, 24 h; read-out: Keratinocyte IC50
Experimental: as §2

[7] = ATCC17917, triplicate, averaged, 22 h at 37°C
[8] = triplicate, averaged, 22 h at 37°C
[9] = HTB-26 breast cancer cells, 72 h
[10] = at a concentration of 128 μg/mL

Compound | IC50 [1] [µg/mL] | MIC [1] [µg/mL] | IC50 (S. warneri ATCC 17917; [7]) [µg/mL] | MIC (S. warneri ATCC 17917; [7]) [µg/mL] | IC50 [2, 8] [µg/mL] | MIC [2, 8] [µg/mL] | HTB-26 MIC [3, 9] [µg/mL] | IC50 [4] [µg/mL] | MIC [4] [µg/mL] | IC50 [6] [µg/mL] | IC50 (VRE EF379; [8]) [µg/mL] | MIC (VRE EF379; [8]) [µg/mL] | IC50 (MRSA ATCC 33591; [8]) [µg/mL] | MIC (MRSA ATCC 33591; [8]) [µg/mL] | IC50 [3, 9] [µg/mL] | IC50 ([5]; BJ cells) [µg/mL] | other results
CC(C)C12SSSSC3(C(=O)N1C)C1OC45C(=O)N(C)C(CO)C(=O)N4C4Nc6ccccc6C4(C5O)C14c1ccccc1NC4N3C2=O (stereo not drawn) [Leptosin J, leptosin J] | > 128 | > 128 | 9 (≈ 12.1 µM) | 64 (≈ 86.4 µM) | > 128 | > 128 | 0.5 | > 128 | > 128 | > 0.5 |  |  |  |  |  |  | IC50 (VRE EF379; 22 h): 128 µg/mL (≈ 173 µM); MIC (VRE EF379; 22 h): > 128 µg/mL; IC50 (MRSA ATCC 33591; 22 h): 0.7 µg/mL (≈ 0.945 µM); MIC (MRSA ATCC 33591; 22 h): 2 µg/mL (≈ 2.7 µM); IC50 [3]: > 0.5 µg/mL; IC50 ([5]; BJ): 0.5 µg/mL (≈ 0.675 µM)
Cc1cc(O)c2c(c1)C(=O)c1cccc(O)c1C2=O [Chrysophanol, chrysophanol] | > 128 | > 128 | > 128 | > 128 | > 128 | > 128 | >64 | > 128 | > 128 | > 64 | > 128 | > 128 | > 128 | > 128 | > 64 | > 64 | activity against HTB-26 cell line [3, 10]: inactive; activity against fibroblast cell line [5, 10]: inactive
Cc1cc(O)c2c(c1)C(C1c3cccc(O)c3C(=O)c3c(O)cc(C)cc31)c1cccc(O)c1C2=O (stereo not drawn) [Chrysophanol bianthrone, chrysophanol bianthrone] | > 128 | > 128 | > 128 | > 128 | > 128 | > 128 | 64 | > 128 | > 128 | > 64 | 128 (≈ 268 µM) | > 128 | > 128 | > 128 | 5 (≈ 10.4 µM) | > 64 | 
C[C@H]1CCC/C=C/[C@@H]2C[C@H](O)C[C@H]2[C@H](O)/C=C/C(=O)O1 [Brefeldin A, brefeldin A] | > 128 | > 128 | > 128 | > 128 | 20 (≈ 71.3 µM) | 128 (≈ 457 µM) |  | > 128 | > 128 | 0.5 (≈ 1.78 µM) | > 128 | > 128 | > 128 | > 128 | > 0.5 | > 64 | effect against C. albicans [2]: antifungal effect
CN[C@H](CC(C)C)C(=O)N[C@H]1C(=O)N[C@@H](CC(N)=O)C(=O)N[C@H]2C(=O)N[C@H]3C(=O)N[C@H](C(=O)N[C@H](C(=O)O)c4cc(O)cc(O)c4-c4cc3ccc4O)[C@H](O)c3ccc(c(Cl)c3)Oc3cc2cc(c3O[C@@H]2O[C@H](CO)[C@@H](O)[C@H](O)[C@H]2O[C@H]2C[C@](C)(N)[C@H](O)[C@H](C)O2)Oc2ccc(cc2Cl)[C@H]1O [Vancomycin, vancomycin, reference compound] |  |  |  |  |  |  |  |  |  |  |  |  |  |  |  |  | IC50 (S. warneri ATCC 17917; ATCC17917, 22 h): 0.75 µg/mL (≈ 0.518 µM); MIC (S. warneri ATCC 17917; ATCC17917, 22 h): 1 µg/mL (≈ 0.69 µM); IC50 (MRSA ATCC 33591; 22 h): 0.88 µg/mL (≈ 0.607 µM); MIC (MRSA ATCC 33591; 22 h): 1.6 µg/mL (≈ 1.1 µM)
CO[C@H]1/C=C/O[C@@]2(C)Oc3c(C)c(O)c4c(O)c(c(/C=N/N5CCN(C)CC5)c(O)c4c3C2=O)NC(=O)/C(C)=C\C=C\[C@H](C)[C@H](O)[C@@H](C)[C@@H](O)[C@@H](C)[C@H](OC(C)=O)[C@@H]1C [Rifampicin, rifampicin, reference compound] |  |  |  |  |  |  |  |  |  |  | 0.5 (≈ 0.608 µM) | 2 (≈ 2.43 µM) |  |  |  |  | 
Cc1cc(CO)c2c(=O)c3c(O)cccc3oc2c1 [1-hydroxy-6-methyl-8-hydroxymethylxanthone] | > 128 | > 128 | > 128 | > 128 | > 128 | > 128 | 32 | > 128 | > 128 | 12 (≈ 46.8 µM) | > 128 | > 128 | > 128 | > 128 | 24 (≈ 93.7 µM) | 29 (≈ 113 µM) | 
COc1cccc2c1C(=O)c1c(O)c3c(c(O)c1C2=O)C[C@@](O)(C(=O)CO)C[C@@H]3O[C@H]1C[C@H](N)[C@H](O)[C@H](C)O1 [Doxorubromycin, doxorubicin, reference compound] |  |  |  |  |  |  | >16 |  |  |  |  |  |  |  | 2.5 (≈ 4.6 µM) |  | 
COC1=C(Cl)C(C)(O)c2c(oc(=O)c3c(O)cc(OC)cc23)C1=O (stereo not drawn) [TMC-264] | > 128 | > 128 | 23 (≈ 65.2 µM) | 64 (≈ 181 µM) | > 128 | > 128 | 8 | > 128 | > 128 | 1 (≈ 2.84 µM) | 100 (≈ 284 µM) | > 128 | 14 (≈ 39.7 µM) | 64 (≈ 181 µM) | 2.8 (≈ 7.94 µM) | 13 (≈ 36.9 µM) | 
C[C@@H]1[C@H](O)[C@@H](C)/C=C/C=C/CC/C=C/C=C/C=C/C=C/C(O[C@H]2O[C@H](C)[C@@H](O)[C@H](N)[C@@H]2O)CC2O[C@](O)(CC(O)C(O)CCC(O)CC(O)CC(O)CC(=O)O[C@H]1C)CC(O)C2C(=O)O (stereo partly drawn) [Nystatin, nystatin, reference compound] |  |  |  |  |  |  |  |  |  |  |  |  |  |  |  |  | C. albicans IC50 [2, 8]: 0.92 µg/mL; C. albicans MIC [2, 8]: 1.6 µg/mL
